Data from publication PMC7365685 (ACS chemical biology, 2019).
Numbering of substitutions follows the chain as printed.

What was measured:
[1] = biological target: T1, dopamine D2 receptor (D2R; D2SR; SNAP-D2SR) (Homo sapiens, UniProt P14416); test: [3H]spiperone competition binding
[2] = biological target: T1, dopamine D2 receptor (D2R; D2SR; SNAP-D2SR); test: inhibition of forskolin-stimulated cAMP; type: cell-based; conditions: functional affinity (dissociation constant of coupled receptor); partial agonist
[3] = biological target: T1, dopamine D2 receptor (D2R; D2SR; SNAP-D2SR); test: inhibition of forskolin-stimulated cAMP; type: cell-based; conditions: functional affinity; receptor alkylation with phenoxybenzamine
N186^ECL2A D2R = N186^ECL2A D2R (Homo sapiens, UniProt P14416, N186A); test: biochemical; parameters: species or system FlpIn CHO
Sequence of N186^ECL2A D2R (P14416 whole entry N186A): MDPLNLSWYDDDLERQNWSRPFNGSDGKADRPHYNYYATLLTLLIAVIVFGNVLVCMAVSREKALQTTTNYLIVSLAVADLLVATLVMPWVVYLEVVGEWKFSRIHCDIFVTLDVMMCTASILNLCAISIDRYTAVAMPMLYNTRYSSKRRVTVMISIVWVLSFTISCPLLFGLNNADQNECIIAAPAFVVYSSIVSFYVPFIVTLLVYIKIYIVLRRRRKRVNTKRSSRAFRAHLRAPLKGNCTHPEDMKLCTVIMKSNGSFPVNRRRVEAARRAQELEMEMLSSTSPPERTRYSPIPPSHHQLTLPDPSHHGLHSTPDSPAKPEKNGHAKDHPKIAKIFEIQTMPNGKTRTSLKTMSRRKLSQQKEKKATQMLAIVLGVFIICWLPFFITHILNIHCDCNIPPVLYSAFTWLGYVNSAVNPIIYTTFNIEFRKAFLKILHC

L174^ECL2A D2R = L174^ECL2A D2R (Homo sapiens, UniProt P14416, L174A); test: biochemical; parameters: species or system FlpIn CHO
Sequence of L174^ECL2A D2R (P14416 whole entry L174A): as the sequence (P14416 whole entry N186A) above, with L174A, A186N counted along it

I122^3.40A D2R = biological target: T2, I122^3.40A D2R (Homo sapiens, UniProt P14416, I122A); test: biochemical; parameters: species or system FlpIn CHO
T2 sequence (P14416 1-443 I122A): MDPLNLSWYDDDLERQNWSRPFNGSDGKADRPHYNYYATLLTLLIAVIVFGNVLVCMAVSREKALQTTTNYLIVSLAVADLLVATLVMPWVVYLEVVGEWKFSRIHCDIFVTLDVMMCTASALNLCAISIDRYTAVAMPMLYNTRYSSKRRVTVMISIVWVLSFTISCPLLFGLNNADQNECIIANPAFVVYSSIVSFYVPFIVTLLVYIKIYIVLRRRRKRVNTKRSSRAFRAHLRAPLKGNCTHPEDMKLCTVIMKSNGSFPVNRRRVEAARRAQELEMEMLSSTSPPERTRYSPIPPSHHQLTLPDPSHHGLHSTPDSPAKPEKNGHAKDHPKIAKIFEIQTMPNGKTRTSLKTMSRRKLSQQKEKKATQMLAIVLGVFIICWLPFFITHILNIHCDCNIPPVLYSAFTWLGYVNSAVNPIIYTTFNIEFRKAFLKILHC

[4] = biological target: dopamine D2 receptor (D2R; D2SR; SNAP-D2SR) (Homo sapiens, UniProt P14416, F110A); test: biochemical
Sequence of dopamine D2 receptor (D2R; D2SR; SNAP-D2SR) (Homo sapiens, UniProt P14416, F110A) (P14416 1-414 isoform P14416-2 F110A): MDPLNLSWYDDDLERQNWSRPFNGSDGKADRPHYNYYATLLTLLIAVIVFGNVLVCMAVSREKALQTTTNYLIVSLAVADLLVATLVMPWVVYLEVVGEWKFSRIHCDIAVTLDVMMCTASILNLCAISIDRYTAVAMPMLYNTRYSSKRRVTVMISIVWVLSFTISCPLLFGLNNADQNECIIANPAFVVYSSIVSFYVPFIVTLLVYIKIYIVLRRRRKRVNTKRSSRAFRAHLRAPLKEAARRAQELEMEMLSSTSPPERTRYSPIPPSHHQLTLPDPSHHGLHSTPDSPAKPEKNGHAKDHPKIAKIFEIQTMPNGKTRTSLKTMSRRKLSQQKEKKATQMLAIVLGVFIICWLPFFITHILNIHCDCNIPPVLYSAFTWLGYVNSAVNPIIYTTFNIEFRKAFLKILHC

[5] = biological target: dopamine D2 receptor (D2R; D2SR; SNAP-D2SR) (Homo sapiens, UniProt P14416, S193A); test: biochemical
Sequence of dopamine D2 receptor (D2R; D2SR; SNAP-D2SR) (Homo sapiens, UniProt P14416, S193A) (P14416 1-414 isoform P14416-2 S193A): as the sequence (P14416 1-414 isoform P14416-2 F110A) above, with A110F, S193A counted along it

V115^3.33A D2R = biological target: T3, V115^3.33A D2R (Homo sapiens, UniProt P14416, V115A); test: biochemical
T3 sequence (P14416 1-443 V115A): T2 sequence (P14416 1-443 I122A) with V115A, A122I

C118^3.36A D2R = biological target: T4, C118^3.36A D2R (Homo sapiens, UniProt P14416, C118A); test: biochemical
T4 sequence (P14416 1-443 C118A): T2 sequence (P14416 1-443 I122A) with C118A, A122I

E181^ECL2A D2R = E181^ECL2A D2R (Homo sapiens, UniProt P14416, E181A); test: biochemical
Sequence of E181^ECL2A D2R (P14416 whole entry E181A): as the sequence (P14416 whole entry N186A) above, with E181A, A186N counted along it

[6] = biological target: dopamine D2 receptor (D2R; D2SR; SNAP-D2SR) (Homo sapiens, UniProt P14416, F202A); test: biochemical
Sequence of dopamine D2 receptor (D2R; D2SR; SNAP-D2SR) (Homo sapiens, UniProt P14416, F202A) (P14416 1-414 isoform P14416-2 F202A): as the sequence (P14416 1-414 isoform P14416-2 F110A) above, with A110F, F202A counted along it

S197^5.46A D2R = S197^5.46A D2R (Homo sapiens, UniProt P14416, S197A); test: biochemical
Sequence of S197^5.46A D2R (P14416 whole entry S197A): as the sequence (P14416 whole entry N186A) above, with A186N, S197A counted along it

I183^ECL2A D2R = I183^ECL2A D2R (Homo sapiens, UniProt P14416, I183A); test: biochemical
Sequence of I183^ECL2A D2R (P14416 whole entry I183A): as the sequence (P14416 whole entry N186A) above, with I183A, A186N counted along it

T119^3.37A D2R = biological target: T5, T119^3.37A D2R (Homo sapiens, UniProt P14416, T119A); test: biochemical
T5 sequence (P14416 1-443 T119A): T2 sequence (P14416 1-443 I122A) with T119A, A122I

T1 sequence (P14416 1-414 isoform P14416-2): as the sequence (P14416 1-414 isoform P14416-2 F110A) above, with A110F counted along it

Structure (SMILES): CCCN1CCN(c2cccc(Cl)c2Cl)CC1 [compound 2]
- Ki [1]: 18.2 nM

Structure (SMILES): Clc1cccc(N2CCNCC2)c1Cl [compound 1, DCPP]
- cAMP (BRET Biosensor) / pKA [2]: 6.49 ± 0.18
- Ki [1]: 575 nM

Structure (SMILES): CCCCN1CCN(c2cccc(Cl)c2Cl)CC1 [compound 3]
- Ki [1]: 5.01 nM

Structure (SMILES): CCCCN1CCN(c2ccccc2OC)CC1 [compound 12]
- Ki [1]: 93.3 nM

Structure (SMILES): NCCc1ccc(O)c(O)c1 [dopamine]
- pKA [3]: determine the functional affinity and efficacy of dopamine and ropinirole

Structure (SMILES): COCCCCN1CCN(c2cccc(Cl)c2Cl)CC1 [compound 4]
- Ki [1]: 20 nM

Structure (SMILES): CCCN(CCC)CCc1cccc2c1CC(=O)N2 [ropinirole]
- pKA [3]: determine the functional affinity and efficacy of dopamine and ropinirole
- Ki [1]: 6610 nM
- Ki (N186^ECL2A D2R): 9.77 µM
- Ki (L174^ECL2A D2R): 2240 nM
- Ki (I122^3.40A D2R): 7.76 µM
- Ki [4]: 42.7 µM
- Ki [5]: 100 µM
- Ki (V115^3.33A D2R): 18.6 µM
- Ki (C118^3.36A D2R): 3.72 µM
- Ki (E181^ECL2A D2R): 3.02 µM
- Ki [6]: 12.3 µM
- Ki (S197^5.46A D2R): 8.51 µM
- Ki (I183^ECL2A D2R): 3.16 µM
- Ki (T119^3.37A D2R): 4.27 µM
